Key:
[1] = target: T1, Muscarinic acetylcholine receptor M2 (Homo sapiens, UniProt P08172); experiment: Dissociation constant for human Muscarinic acetylcholine receptor M2 was determined.
T1 sequence (P08172 whole entry): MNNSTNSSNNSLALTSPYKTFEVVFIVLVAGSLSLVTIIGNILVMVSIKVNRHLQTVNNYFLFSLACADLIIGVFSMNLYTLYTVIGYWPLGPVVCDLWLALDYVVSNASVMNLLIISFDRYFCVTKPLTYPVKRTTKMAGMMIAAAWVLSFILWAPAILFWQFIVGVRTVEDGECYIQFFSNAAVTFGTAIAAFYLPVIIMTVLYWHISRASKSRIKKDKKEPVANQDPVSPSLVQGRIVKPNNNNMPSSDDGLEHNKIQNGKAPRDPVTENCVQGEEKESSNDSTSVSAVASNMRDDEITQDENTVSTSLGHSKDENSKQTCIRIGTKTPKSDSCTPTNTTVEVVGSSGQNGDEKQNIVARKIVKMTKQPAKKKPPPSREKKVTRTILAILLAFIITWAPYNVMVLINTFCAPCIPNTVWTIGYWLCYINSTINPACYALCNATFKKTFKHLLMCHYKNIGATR

[2] = target: T2, Muscarinic acetylcholine receptor M2 (Rattus norvegicus, UniProt P10980); experiment: Dissociation constant for the blocking of brainstem muscarinic M2 receptor was reported.; format: tissue-based
T2 sequence (P10980 whole entry): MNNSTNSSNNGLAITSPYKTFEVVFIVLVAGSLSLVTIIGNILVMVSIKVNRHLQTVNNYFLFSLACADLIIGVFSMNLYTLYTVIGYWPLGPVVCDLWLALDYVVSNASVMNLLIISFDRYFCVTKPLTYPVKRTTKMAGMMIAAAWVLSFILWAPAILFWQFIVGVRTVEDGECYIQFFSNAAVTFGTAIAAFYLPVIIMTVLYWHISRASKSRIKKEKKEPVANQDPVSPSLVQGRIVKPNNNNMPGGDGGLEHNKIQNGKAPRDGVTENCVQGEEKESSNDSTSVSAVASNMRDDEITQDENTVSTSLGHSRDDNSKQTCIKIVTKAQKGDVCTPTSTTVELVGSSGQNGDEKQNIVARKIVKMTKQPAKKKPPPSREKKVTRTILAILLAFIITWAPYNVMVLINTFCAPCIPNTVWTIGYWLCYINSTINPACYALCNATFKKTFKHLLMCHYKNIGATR

[3] = target: T3, Muscarinic acetylcholine receptor M1 (Homo sapiens, UniProt P11229); experiment: Dissociation constant for human Muscarinic acetylcholine receptor M1 was determined.
T3 sequence (P11229 whole entry): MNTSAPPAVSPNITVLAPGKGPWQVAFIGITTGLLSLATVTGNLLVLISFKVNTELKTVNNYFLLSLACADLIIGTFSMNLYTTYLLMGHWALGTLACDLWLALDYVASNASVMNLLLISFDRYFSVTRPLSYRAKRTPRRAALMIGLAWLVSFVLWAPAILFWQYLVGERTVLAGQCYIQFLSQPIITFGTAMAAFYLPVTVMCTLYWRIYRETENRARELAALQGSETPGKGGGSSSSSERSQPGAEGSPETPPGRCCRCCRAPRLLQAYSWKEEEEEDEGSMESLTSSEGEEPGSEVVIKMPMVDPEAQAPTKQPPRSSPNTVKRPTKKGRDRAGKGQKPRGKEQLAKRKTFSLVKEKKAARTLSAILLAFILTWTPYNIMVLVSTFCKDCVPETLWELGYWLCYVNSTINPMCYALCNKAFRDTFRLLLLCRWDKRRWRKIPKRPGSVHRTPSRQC

[4] = target: T4, Muscarinic acetylcholine receptor M4 (Rattus norvegicus, UniProt P08485); experiment: Potency assessed to inhibit cAMP levels in rat striatum, for blocking oxotremorine-M, in functional assay for Muscarinic acetylcholine receptor M4; format: tissue-based
T4 sequence (P08485 whole entry): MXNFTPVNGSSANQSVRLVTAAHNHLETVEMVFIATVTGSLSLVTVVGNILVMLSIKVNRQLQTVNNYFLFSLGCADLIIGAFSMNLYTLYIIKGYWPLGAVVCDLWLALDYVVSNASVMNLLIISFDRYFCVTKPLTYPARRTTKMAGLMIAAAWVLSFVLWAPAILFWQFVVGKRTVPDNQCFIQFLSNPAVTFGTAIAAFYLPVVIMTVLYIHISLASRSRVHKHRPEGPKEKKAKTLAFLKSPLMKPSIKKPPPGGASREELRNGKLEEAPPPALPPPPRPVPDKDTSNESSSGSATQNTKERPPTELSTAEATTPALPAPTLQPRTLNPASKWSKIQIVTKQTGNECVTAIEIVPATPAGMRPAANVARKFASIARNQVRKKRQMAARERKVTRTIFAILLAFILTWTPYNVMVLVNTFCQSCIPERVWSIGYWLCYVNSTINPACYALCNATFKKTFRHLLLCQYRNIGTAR

[5] = species: Rattus norvegicus; experiment: Ability to reverse oxotremorine-M mediated inhibition of evoked acetylcholine release from hippocampal tissue; format: functional, Hippocampus
[6] = target: T5, Muscarinic acetylcholine receptor M4 (Mus musculus, UniProt P32211); experiment: Potency assessed to inhibit cAMP levels in N1E-115 neuroblastoma cells, for blocking oxotremorine-M in functional assay for Muscarinic acetylcholine receptor M4; format: cell-based
T5 sequence (P32211 whole entry): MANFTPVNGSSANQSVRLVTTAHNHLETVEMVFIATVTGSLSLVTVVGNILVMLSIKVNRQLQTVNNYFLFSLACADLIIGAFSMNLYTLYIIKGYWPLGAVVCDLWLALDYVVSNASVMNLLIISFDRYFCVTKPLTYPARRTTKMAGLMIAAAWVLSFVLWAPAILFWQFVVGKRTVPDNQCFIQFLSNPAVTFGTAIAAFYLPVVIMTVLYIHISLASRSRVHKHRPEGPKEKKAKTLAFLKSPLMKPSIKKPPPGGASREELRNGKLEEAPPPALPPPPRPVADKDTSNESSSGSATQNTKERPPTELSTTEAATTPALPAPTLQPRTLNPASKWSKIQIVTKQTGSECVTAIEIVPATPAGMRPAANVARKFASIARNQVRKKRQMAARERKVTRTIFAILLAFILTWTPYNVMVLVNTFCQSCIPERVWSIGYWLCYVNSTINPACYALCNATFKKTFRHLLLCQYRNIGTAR

[7] = target: T2, Muscarinic acetylcholine receptor M2; experiment: Dissociation constant for the blocking of heart muscarinic M2 receptor was reported.
[8] = target: T2, Muscarinic acetylcholine receptor M2; experiment: Dissociation constant for the blocking of cardiac muscarinic M2 receptor was reported.; set-up: species or system Heart

Compound | Kd [1] [nM] | Kd [2] [nM] | Kd [3] [nM] | Kd [4] [nM] | Kd [5] [nM] | Kd [6] [nM] | Kd [7] [nM] | Kd [8] [nM]
C[C@@H]1OC(=O)C[C@H]1C/C=C/[C@H]1CCCCN1C | 4400 | 1210 | 9700 | – | – | – | – | –
C[C@@H]1OC(=O)[C@H]2C[C@H]3CCCC[C@@H]3[C@@H](/C=C/[C@H]3CCC[C@H](C)N3C)[C@@H]12 [HIMBACINE] | – | 4.6 | – | 5.4 | 8.5 | 11.3 | 6.9 | 3
